Read-outs that look alike come from different tables or passages of the source.
Key:
[1] = target: T1, TYK2-JH2 domain (Homo sapiens, UniProt P29597); assay: Binding activity test for JH2 domain of TYK2 (Tb-antibody/tracer FRET); settings: for JAK1/TYK2 selectivity: ratio JAK1-JH2 IC50 / TYK2-JH2 IC50
T1 construct: IC50 on JH2 domain activity (nM)
Experimental: (§1) Binding Activity Test for […] Domain of JAK1 and TYK2 The compounds are prepared in DMSO for 200× top dose, then serial dilute it with 27-fold for 3 more points. Add 8 μL/well in echo source plate, echo will add 75 nL/well with 3-fold serial dilution for 11 points in assay plate. 75 nL DMSO for high control and low control. […] For low control, add 5 μL/well assay buffer. And then spin down at 1000 rpm and centrifuge for 30 seconds. After enzyme system prepared, add 5 μL of Tb-antibody solution into each wells of assay plate. Spin down at 1000 rpm and centrifuge for 30 sec. After Tb-antibody added, also add 5 μL of tracer into the assay plate. Spin down at 1000 rpm and centrifuge for 30 sec. Incubate for 60 mins at 25° C. firstly and then continue to incubate the plate at 4° C. overnight. Read by envision in FRET mode. The Luminescence value was recorded by a multi-label reader Envision (PerkinElmer).

[2] = target: T2, JAK1-JH2 domain (Homo sapiens, UniProt P23458); assay: Binding activity test for JH2 domain of JAK1 (Tb-antibody/tracer FRET)
T2 construct: IC50 on JH2 domain activity (nM)
Experimental: as §1

[3] = target: T3, Ba/F3-FL-TYK2-P760L cells (Homo sapiens, UniProt P29597, P760L, cells depend on it); assay: Anti-proliferative assay, Ba/F3-FL-TYK2-P760L cells (Cell-Titer Glo); type: cell-based; settings: 72 h, read-out: BaF3-FL-T2P760L IC50
T3 construct: BaF3-FL-T2P760L (nM)
Summary of the method: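 Ba/F3 cells made IL-3-independent by TEL-fused or full-length mutant JAK-family kinases, seeded at 2000/well and dosed after 24 h with 9 three-fold dilutions topping at 20 μM. Viability after 72 h at 37 °C, 5% CO2 by Cell-Titer Glo ATP luminescence.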

[4] = Microsomal metabolic stability assay; type: in vitro ADME; settings: pH 7.4, 0.5 mg/mL protein, 1 μM compound
Summary of the method: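 Test article at 1 μM with 0.5 mg/mL microsomal protein and 2 mM NADPH, in 100 mM potassium phosphate pH 7.4 with 1.0 mM EDTA at 37 °C. Sampled at 0–45 min and quantified by LC/MS/MS. T1/2 from the slope of ln % remaining vs time.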

T3 sequence (P29597 whole entry P760L): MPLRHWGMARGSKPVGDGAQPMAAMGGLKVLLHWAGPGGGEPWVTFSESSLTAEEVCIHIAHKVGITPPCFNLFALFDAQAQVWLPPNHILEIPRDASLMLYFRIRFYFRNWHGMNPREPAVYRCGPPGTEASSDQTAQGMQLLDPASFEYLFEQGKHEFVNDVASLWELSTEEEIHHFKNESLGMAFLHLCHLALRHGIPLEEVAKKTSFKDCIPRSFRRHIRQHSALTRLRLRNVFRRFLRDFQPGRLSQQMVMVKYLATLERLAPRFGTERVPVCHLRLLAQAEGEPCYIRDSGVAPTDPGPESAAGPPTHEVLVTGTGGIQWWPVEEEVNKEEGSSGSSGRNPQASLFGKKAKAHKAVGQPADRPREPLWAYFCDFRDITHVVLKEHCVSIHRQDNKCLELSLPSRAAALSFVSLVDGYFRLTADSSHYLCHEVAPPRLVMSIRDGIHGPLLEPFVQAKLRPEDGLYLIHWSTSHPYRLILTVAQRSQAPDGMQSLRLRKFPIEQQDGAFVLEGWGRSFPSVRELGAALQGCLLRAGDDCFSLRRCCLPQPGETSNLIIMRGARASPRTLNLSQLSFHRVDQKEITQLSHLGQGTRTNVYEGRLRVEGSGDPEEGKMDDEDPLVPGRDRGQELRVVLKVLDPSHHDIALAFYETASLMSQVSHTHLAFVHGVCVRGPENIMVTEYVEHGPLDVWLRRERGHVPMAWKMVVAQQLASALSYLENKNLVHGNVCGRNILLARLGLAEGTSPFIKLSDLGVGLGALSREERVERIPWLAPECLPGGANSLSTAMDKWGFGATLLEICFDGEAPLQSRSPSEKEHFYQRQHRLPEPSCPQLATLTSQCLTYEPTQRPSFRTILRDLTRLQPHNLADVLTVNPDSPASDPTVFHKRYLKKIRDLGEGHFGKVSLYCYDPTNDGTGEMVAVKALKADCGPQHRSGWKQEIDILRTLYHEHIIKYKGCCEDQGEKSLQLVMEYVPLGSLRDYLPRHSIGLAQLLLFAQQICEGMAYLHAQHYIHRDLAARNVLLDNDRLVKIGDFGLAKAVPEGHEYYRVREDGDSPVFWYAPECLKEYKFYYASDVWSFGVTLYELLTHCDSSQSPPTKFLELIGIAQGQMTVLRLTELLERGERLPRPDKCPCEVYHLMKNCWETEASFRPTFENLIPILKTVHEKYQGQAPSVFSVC
T2 sequence (P23458 583-855 limits assumed): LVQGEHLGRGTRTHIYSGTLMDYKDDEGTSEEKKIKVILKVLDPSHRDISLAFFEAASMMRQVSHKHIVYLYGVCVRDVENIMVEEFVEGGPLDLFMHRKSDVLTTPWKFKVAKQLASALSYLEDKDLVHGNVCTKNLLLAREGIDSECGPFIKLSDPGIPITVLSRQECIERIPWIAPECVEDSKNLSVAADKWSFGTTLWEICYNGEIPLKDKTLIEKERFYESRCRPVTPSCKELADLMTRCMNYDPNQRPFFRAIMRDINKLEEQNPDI
T1 sequence (P29597 589-875 limits assumed): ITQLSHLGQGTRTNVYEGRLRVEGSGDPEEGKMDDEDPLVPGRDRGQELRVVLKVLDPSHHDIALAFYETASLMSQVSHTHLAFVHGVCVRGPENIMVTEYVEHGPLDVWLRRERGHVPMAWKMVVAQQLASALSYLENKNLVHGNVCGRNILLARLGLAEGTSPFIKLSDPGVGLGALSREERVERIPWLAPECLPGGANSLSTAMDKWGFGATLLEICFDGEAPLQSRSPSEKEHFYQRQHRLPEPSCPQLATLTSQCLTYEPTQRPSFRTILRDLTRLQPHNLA

IC50 [1] | JAK1/TYK2 selectivity [1] | IC50 [2] | GI50 [3] | microsomal CLint at 1 μM ([4]; dog liver microsomes, read-out: Dog LM Clint) | half-life at 1 μM ([4]; dog liver microsomes, read-out: Dog LM T½) | microsomal CLint at 1 μM ([4]; human liver microsomes, read-out: Human LM Clint) | half-life at 1 μM ([4]; human liver microsomes, read-out: Human LM T½) | microsomal CLint at 1 μM ([4]; rat liver microsomes, read-out: Rat LM Clint) | half-life at 1 μM ([4]; rat liver microsomes, read-out: Rat LM T½) | Structure (SMILES)
0.534 nM | 28.7 | 15.3 nM | 161 nM |  |  |  |  |  |  | [2H]C([2H])([2H])NC(=O)c1cnc(NC(=O)[C@@H]2C[C@H]2F)cc1Nc1ccc2cnn(CC)c2c1OC (relative stereo) [Example 241, 4-((1-Ethyl-7-methoxy-1H-indazol-6-yl)amino)-6-(trans-2-fluorocyclopropanecarboxamido)-N-(methyl-d3)nicotinamide]
5.78 nM | 42.2 | 244 nM |  |  |  |  |  |  |  | [2H]C([2H])([2H])NC(=O)c1cnc(NC(=O)C2CC2)cc1Nc1cn(C)c2ncn([C@@H](C)C(F)(F)F)c(=O)c12 (single isomer, unassigned) [Example 234B, (S*)-6-(cyclopropanecarboxamido)-N-(methyl-d3)-4-((7-methyl-4-oxo-3-(1,1,1-trifluoropropan-2-yl)-4,7-dihydro-3H-pyrrolo[2,3-d]pyrimidin-5-yl)amino)nicotinamide]
0.715 nM | 25.15 | 18 nM | 495 nM |  |  |  |  |  |  | [2H]C([2H])([2H])NC(=O)c1cnc(NC(=O)C2CC2)cc1Nc1ccc2cnn(C(C)C#N)c2c1OC (single isomer, unassigned) [Example 249A, (R*)-4-((1-(1-cyanoethyl)-7-methoxy-1H-indazol-6-yl)amino)-6-(cyclopropanecarboxamido)-N-(methyl-d3)nicotinamide]
0.738 nM | 39.25 | 29 nM | 342 nM |  |  |  |  |  |  | [2H]C([2H])([2H])NC(=O)c1cnc(NC(=O)C2CC2)cc1Nc1ccc2cnn(C(C)C#N)c2c1OC (single isomer, unassigned) [Example 249B, (S*)-4-((1-(1-cyanoethyl)-7-methoxy-1H-indazol-6-yl)amino)-6-(cyclopropanecarboxamido)-N-(methyl-d3)nicotinamide]
1.03 nM | 94.03 | 97.2 nM | 541 nM |  |  |  |  |  |  | [2H]C([2H])([2H])NC(=O)c1cnc(NC(=O)C2CC2)cc1Nc1ccn2ncc(C(C)C#N)c2c1OC (single isomer, unassigned) [Example 251A, (R*)-4-((3-(1-cyanoethyl)-4-methoxypyrazolo[1,5-a]pyridin-5-yl)amino)-6-(cyclopropanecarboxamido)-N-(methyl-d3)nicotinamide]
0.266 nM | 17.30 | 4.6 nM | 103 nM |  |  |  |  |  |  | [2H]C([2H])([2H])NC(=O)c1cnc(NC(=O)C2CC2)cc1Nc1ccn2ncc(C(C)C#N)c2c1OC (single isomer, unassigned) [Example 251B, (S*)-4-((3-(1-cyanoethyl)-4-methoxypyrazolo[1,5-a]pyridin-5-yl)amino)-6-(cyclopropanecarboxamido)-N-(methyl-d3)nicotinamide]
0.868 nM | 50.81 | 44.1 nM |  | 4.66 µL/min/mg | 4.95 h | 23 µL/min/mg | 1 h | 39.4 µL/min/mg | 0.586 h | [2H]C([2H])([2H])NC(=O)c1cnc(NC(=O)C2CC2)cc1Nc1cn(CC)c2ncn([C@H](C)C(F)(F)F)c(=O)c12 (single isomer, unassigned) [Example 254A, (R*)-6-(cyclopropanecarboxamido)-4-((7-ethyl-4-oxo-3-(1,1,1-trifluoropropan-2-yl)-4,7-dihydro-3H-pyrrolo[2,3-d]pyrimidin-5-yl)amino)-N-(methyl-d3)nicotinamide]
11.6 nM | 21.60 | 252 nM |  |  |  |  |  |  |  | [2H]C([2H])([2H])NC(=O)c1cnc(NC(=O)C2CC2)cc1Nc1cn(CC)c2ncn([C@@H](C)C(F)(F)F)c(=O)c12 (single isomer, unassigned) [Example 254B, (S*)-6-(cyclopropanecarboxamido)-4-((7-ethyl-4-oxo-3-(1,1,1-trifluoropropan-2-yl)-4,7-dihydro-3H-pyrrolo[2,3-d]pyrimidin-5-yl)amino)-N-(methyl-d3)nicotinamide]
4.38 nM |  | > 299 nM | 1270 nM |  |  |  |  |  |  | CCNC(=O)c1cnc(NC(=O)C2CC2)cc1Nc1ccc2cnn(CC)c2c1OC [Example 97, 6-(Cyclopropanecarboxamido)-N-ethyl-4-((1-ethyl-7-methoxy-1H-indazol-6-yl)amino)nicotinamide]
0.248 nM | 140.1 | 34.7 nM | 64.6 nM |  |  |  |  |  |  | [2H]C([2H])([2H])NC(=O)c1cnc(NC(=O)C2CC2)cc1Nc1nn(CCC)c2ccn(CC(F)(F)F)c(=O)c12 [Example 208, 6-(Cyclopropanecarboxamido)-N-(methyl-d3)-4-((4-oxo-1-propyl-5-(2,2,2-trifluoroethyl)-4,5-dihydro-1H-pyrazolo[4,3-c]pyridin-3-yl)amino)nicotinamide]
0.158 nM | 70.8 | 11.2 nM | 52.6 nM |  |  |  |  |  |  | [2H]C([2H])([2H])NC(=O)c1cnc(NC(=O)C2CC2)cc1Nc1cn(CC(F)(F)F)c2ccn(CC)c(=O)c12 [Example 209, 6-(Cyclopropanecarboxamido)-4-((5-ethyl-4-oxo-1-(2,2,2-trifluoroethyl)-4,5-dihydro-1H-pyrrolo[3,2-c]pyridin-3-yl)amino)-N-(methyl-d3)nicotinamide]
3.01 nM | 19.5 | 58.7 nM | 478 nM |  |  |  |  |  |  | [2H]C([2H])([2H])NC(=O)c1cnc(NC(C)=O)cc1Nc1ccc2cnn(CC)c2c1OC [Example 230, 6-Acetamido-4-((1-ethyl-7-methoxy-1H-indazol-6-yl)amino)-N-(methyl-d3)nicotinamide]
0.969 nM | 45.2 | 43.8 nM | 892 nM |  |  |  |  |  |  | [2H]C([2H])([2H])NC(=O)c1cnc(NC(=O)C2CC(C)C2)cc1Nc1ccc2cnn(CC)c2c1OC (centres unmarked) [Example 236, 4-((1-Ethyl-7-methoxy-1H-indazol-6-yl)amino)-N-(methyl-d3)-6-(3-methylcyclobutane-1-carboxamido)nicotinamide]
0.26 nM | 19.5 | 5.07 nM | 70.7 nM |  |  |  |  |  |  | [2H]C([2H])([2H])NC(=O)c1cnc(Nc2ccn(C)n2)cc1Nc1ccn2ncc(C#N)c2c1OC [Example 240, 4-((3-Cyano-4-methoxypyrazolo[1,5-a]pyridin-5-yl)amino)-N-(methyl-d3)-6-((1-methyl-1H-pyrazol-3-yl)amino)nicotinamide]
1.18 nM | 38.5 | 45.3 nM | 404 nM |  |  |  |  |  |  | [2H]C([2H])([2H])NC(=O)c1cnc(NC(=O)C2CCC2)cc1Nc1ccc2cnn(CC)c2c1OC [Example 242, 6-(Cyclobutanecarboxamido)-4-((1-ethyl-7-methoxy-1H-indazol-6-yl)amino)-N-(methyl-d3)nicotinamide]
3.45 nM | 37.7 | 130 nM | > 5000 nM |  |  |  |  |  |  | [2H]C([2H])([2H])NC(=O)c1cnc(NC(=O)C2CC2)cc1Nc1ccn2ncc(CC(N)=O)c2c1OC [Example 243, 4-((3-(2-Amino-2-oxoethyl)-4-methoxypyrazolo[1,5-a]pyridin-5-yl)amino)-6-(cyclopropanecarboxamido)-N-(methyl-d3)nicotinamide]
0.157 nM | 27.7 | 4.34 nM | 56.4 nM |  |  |  |  |  |  | CCn1ccc2c(c(Nc3cc(NC(=O)C4CC4)ncc3C(=O)NC)cn2C2CC2)c1=O [Example 245, 6-(Cyclopropanecarboxamido)-4-((1-cyclopropyl-5-ethyl-4-oxo-4,5-dihydro-1H-pyrrolo[3,2-c]pyridin-3-yl)amino)-N-methylnicotinamide]

Structure (SMILES) | IC50 [1] | JAK1/TYK2 selectivity [1] | IC50 [2] | GI50 [3] | microsomal CLint at 1 μM ([4]; dog liver microsomes, read-out: Dog LM Clint) | half-life at 1 μM ([4]; dog liver microsomes, read-out: Dog LM T½) | microsomal CLint at 1 μM ([4]; human liver microsomes, read-out: Human LM Clint) | half-life at 1 μM ([4]; human liver microsomes, read-out: Human LM T½) | microsomal CLint at 1 μM ([4]; rat liver microsomes, read-out: Rat LM Clint) | half-life at 1 μM ([4]; rat liver microsomes, read-out: Rat LM T½)
[2H]C([2H])([2H])NC(=O)c1cnc(NC(=O)CC)cc1Nc1ccc2cnn(CC)c2c1OC [Example 229, 4-((1-Ethyl-7-methoxy-1H-indazol-6-yl)amino)-N-(methyl-d3)-6-propionamidonicotinamide] | 1.68 nM | 62.5 | 105 nM | 564 nM |  |  |  |  |  | 

— patent US20250115597A1, “TYK2 INHIBITORS AND COMPOSITIONS AND METHODS THEREOF” (LYNK PHARMACEUTICALS CO. LTD., priority 2021, published 2025)
